The source made the active and inactive calls. No rule for the calls is given here.
System: GENE-TOX genotoxicity assays, various organisms and cells
Test: GENE-TOX mutagenicity studies
Conditions: for call: Assay Type: In vivo carcinogenicity studies
[1] = Species/Cell Type: Rodents, Sex: Male, Assay Type: Dominant lethal test, Assay Code: DLTT, Evaluation Type: Evaluation A (Pre-1980)
[2] = Species/Cell Type: Saccharomyces cerevisiae, Assay Type: Mitotic recombination or gene conversion, Assay Code: YEH-, Evaluation Type: Evaluation A (Pre-1980)

SMILES: CCCCNP(=O)(N1CC1)N1CC1
- mutagenic call (Species/Cell Type: Drosophila melanogaster, Assay Type: Sex-linked recessive lethal gene mutation, Assay Code: SRL+, Evaluation Type: Evaluation A (Pre-1980)): active; positive
- mutagenic call (Species/Cell Type: Nonhuman, Assay Type: Chromosome aberrations in vitro, Assay Code: CY&+, Evaluation Type: Evaluation A (Pre-1980)): active; positive
- mutagenic call (Species/Cell Type: Schizosaccharomyces pombe, Assay Type: Reverse gene mutation, Assay Code: YEZ+, Evaluation Type: Evaluation A (Pre-1980)): active; positive

SMILES: Nc1ccc(N)c(Cl)c1
- call (Species/Cell Type: Nonhuman, Assay Code: CCG-L, Evaluation Type: Evaluation A (Pre-1980)): inactive; negative

SMILES: CN=C=O
- mutagenic call (Species/Cell Type: Mammalian polychromatic erythrocytes, Assay Type: Micronucleus test, chromosome aberrations, Assay Code: MNT+U, Dose Response: Unconfirmed positive response, Evaluation Type: Evaluation B (Post-1980)): active; positive

SMILES: ClC1=C(Cl)[C@]2(Cl)C3C(Cl)C(Cl)CC3[C@@]1(Cl)C2(Cl)Cl (stereo partly specified)
- mutagenic call (Species/Cell Type: Chinese hamster lung (V79) cells, Assay Type: Forward gene mutation at the HPRT or ouabain locus, Assay Code: V79+, Evaluation Type: Evaluation A (Pre-1980)): active; positive
- call (Species/Cell Type: Nonhuman, Assay Code: CCG+L, Evaluation Type: Evaluation A (Pre-1980)): active; positive
- mutagenic call [1]: no conclusion
- mutagenic call (Species/Cell Type: Zea mays (corn), Assay Type: Gene mutation, Assay Code: ZEM+, Evaluation Type: Evaluation A (Pre-1980)): active; positive

SMILES: CCC1(c2ccccc2)C(=O)NC(=O)N(C(=O)c2ccccc2)C1=O (stereo unspecified)
- mutagenic call [1]: no conclusion
- mutagenic call (Species/Cell Type: Salmonella typhimurium, Assay Type: Forward and reverse gene mutation, host-mediated assay, Assay Code: HMA-, Evaluation Type: Evaluation A (Pre-1980)): inactive; negative

SMILES: O[C@@H]1[C@@H]2O[C@@H]2c2ccccc2[C@H]1O
- mutagenic call (Species/Cell Type: Escherichia coli polA (W3119 vs P3478), Assay Type: Rec-assay, DNA effects (bacterial DNA repair), Assay Code: RE1+, Evaluation Type: Evaluation A (Pre-1980)): active; positive

SMILES: NC[C@H]1O[C@H](O[C@H]2[C@H](O)[C@@H](O[C@H]3O[C@H](CO)[C@@H](O)[C@H](N)[C@H]3O)[C@H](N)C[C@@H]2N)[C@H](N)[C@@H](O)[C@@H]1O
- mutagenic call [2]: inactive; negative

SMILES: CN(C)c1ccc(N=Nc2ccccc2)cc1
- mutagenic call (Species/Cell Type: Bacillus subtilis (H17 vs M45T), Assay Type: Rec-assay, spot test, DNA effects (bacterial DNA repair), Assay Code: REXT, Evaluation Type: Evaluation A (Pre-1980)): no conclusion
- mutagenic call (Species/Cell Type: Drosophila melanogaster, Assay Type: Sex-linked recessive lethal gene mutation, Assay Code: SRLT, Evaluation Type: Evaluation A (Pre-1980)): no conclusion
- mutagenic call (Species/Cell Type: Escherichia coli polA (W3110 vs P3478), Assay Type: Rec-assay, DNA effects (bacterial DNA repair), Assay Code: RE2-, Evaluation Type: Evaluation A (Pre-1980)): inactive; negative
- mutagenic call (Species/Cell Type: Escherichia coli polA (W3119 vs P3478), Assay Type: Rec-assay, DNA effects (bacterial DNA repair), Assay Code: RE1T, Evaluation Type: Evaluation A (Pre-1980)): no conclusion
- mutagenic call (Species/Cell Type: Fischer rat embryo (RLV/1706) cells, Assay Type: Cell transformation, viral enhanced, Assay Code: CTR+, Evaluation Type: Evaluation A (Pre-1980)): active; positive
- mutagenic call (Species/Cell Type: Human diploid fibroblasts, Assay Type: Unscheduled DNA synthesis (UDS) in vitro, DNA effects, Assay Code: UDHT, Evaluation Type: Evaluation A (Pre-1980)): no conclusion
- mutagenic call (Species/Cell Type: Mammalian polychromatic erythrocytes, Assay Type: Micronucleus test, chromosome aberrations, Assay Code: MNT+, Evaluation Type: Evaluation A (Pre-1980)): active; positive
- mutagenic call (Species/Cell Type: Mouse (BALB/c-3T3) cells, Assay Type: Cell transformation, Assay Code: CTB-, Evaluation Type: Evaluation A (Pre-1980)): inactive; negative
- mutagenic call (Species/Cell Type: Mouse, Sex: Male, Assay Type: Sperm morphology, Assay Code: SPI-, Evaluation Type: Evaluation A (Pre-1980)): inactive; negative
- call (Species/Cell Type: Nonhuman, Assay Code: CCG+, Evaluation Type: Evaluation A (Pre-1980)): active; positive
- mutagenic call (Species/Cell Type: Nonhuman, Assay Type: Sister-chromatid exchange (SCE) in vitro, Assay Code: SC2+D*, Activation: With metabolic activation, Dose Response: With dose response, Evaluation Type: Evaluation B (Post-1980)): active; positive
- mutagenic call (Species/Cell Type: Nonhuman, Assay Type: Sister-chromatid exchange (SCE) in vivo, Assay Code: SC3+, Evaluation Type: Evaluation B (Post-1980)): active; positive
- mutagenic call [2]: inactive; negative
- mutagenic call (Species/Cell Type: Salmonella typhimurium (one or more of the five standard strains: TA98, TA100, TA1535, TA1537, and TA1538), Assay Type: Histidine reverse gene mutation, Ames assay, Assay Code: SAL+*, Activation: With metabolic activation, Evaluation Type: Evaluation A (Pre-1980)): active; positive
- mutagenic call (Species/Cell Type: Salmonella typhimurium, Assay Type: Forward and reverse gene mutation, body fluid assay, Assay Code: BFU+, Evaluation Type: Evaluation A (Pre-1980)): active; positive
- mutagenic call (Species/Cell Type: Syrian hamster embryo (SHE) cells, Assay Type: Cell transformation, clonal assay, Assay Code: CTCT, Evaluation Type: Evaluation A (Pre-1980)): no conclusion

SMILES: ClC(Cl)=C(c1ccc(Cl)cc1)c1ccccc1Cl
- mutagenic call (Species/Cell Type: Nonhuman, Assay Type: Chromosome aberrations in vitro, Assay Code: CY&-, Evaluation Type: Evaluation A (Pre-1980)): inactive; negative

SMILES: C[C@@H]1C[C@@H]2OC(=O)[C@]3(C)[C@H]2[C@@H](OC3(C)O)[C@]2(C)C(=O)C=C[C@@H]12 (stereo partly specified)
- mutagenic call (Species/Cell Type: Salmonella typhimurium (one or more of the five standard strains: TA98, TA100, TA1535, TA1537, and TA1538), Assay Type: Histidine reverse gene mutation, Ames assay, Assay Code: SAL-, Evaluation Type: Evaluation A (Pre-1980)): inactive; negative
